Assays:
[1] = system: extirpated intestine of guinea pig; assay: suppressing effect on shrinkage of extirpated intestine of guinea pig by electric stimulations (method of Kosterlitz); format: cell-based; settings: for ED50 (mol) (mean ± s.e.m.): suppression of electrically stimulated shrinkage of extirpated guinea pig intestine, in vitro
Protocol: Adamantylated enkephalin derivatives a and b obtained in Examples 1 and 2 were examined for in vivo analgesic effect and in vitro suppressing effect to shrinkage of extirpated intestine of guinea pig by electric stimulations.
A suppressing effect for the shrinkage of extirpated intestine of guinea pig of the adamantylated enkephalin derivatives a and b was measured in accordance with the method of Kosterlitz (H. W. Kosterlitz, A. A. Watterfield, Ann. Rev. Pharmacol., 15, 29, (1975)).

mouse (dd-Y series) = assay: in vivo analgesic activity by Randall Selitto method; settings: subcutaneous administration to mouse, 1-50 mg/kg, in DMA: physiological saline (4:6); FIG. 2-5
Protocol: Adamantylated enkephalin derivatives a and b are subcutaneously administrated to a mouse, and an analgesic effect in the central nervous system was measured by Randall Selitto method. That is, the derivatives a and b were dissolved in a mixed solution of DMA: physiological saline solution (4:6) and about 100 μl of the solution was subcutaneously administrated to a mouse (dd-Y series: about 20 g) (1-50 mg/kg), and the analgesic effect was measured on every predetermined time interval after the administration by the Randall Selitto method.

CC(C)C[C@H](NC(=O)[C@H](Cc1ccccc1)NC(=O)CNC(=O)[C@@H](C)NC(=O)[C@@H](N)Cc1ccc(O)cc1)C(=O)O [[D-Ala^2] Leucine enkephalin, H-Tyr-D.Ala-Gly-Phe-Leu-OH, reference compound] was tested, and the “Relative Potency” value [1] was 0.89 and the “ED50 (mol) (mean ± s.e.m.)” value [1] was 3.6 ± 1.17 × 10^-8 mol.
In the case of “H-Tyr-D.Ala-Gly-Phe-Leu-NH-Ada [Derivative b]”, the “Relative Potency” value [1] is reported as 2.13, the “suppression for shrinkage, antagonism by naloxon” value ([1]; extirpated guinea pig intestine) is reported as “showed suppression for shrinkage each of which was antagonized by naloxon” and the “ED50 (mol) (mean ± s.e.m.)” value [1] is reported as 1.5 ± 0.71 × 10^-8 mol. For the same molecule, the analgesic activity (mouse (dd-Y series)) was “inferior to morphine hydrogen chloride but superior to the controls”.

From US5652335A, “Physiologically active substance well capable of permeating biomembrane” (Teikoku Seiyaku Kabushiki Kaisha, priority 1990, dated 1997)
